Results on 1 compound are retold here after ChEMBL document CHEMBL5528049, “Discovery of (4-Pyrazolyl)-2-aminopyrimidines as Potent and Selective Inhibitors of Cyclin-Dependent Kinase 2” (J Med Chem, 2024).

The structures appear in SMILES notation. pIC50: −log10 of the molar value. ≈ marks a conversion by molar mass, not a printed value.

The species entered for data set [1] is Homo sapiens. Kind of data set: Selectivity index, ratio of IC50 for inhibition of C-terminal 6-His tagged recombinant full-length human CDK7/recombinant full-length human Cyclin H/N-terminal GST-tagged recombinant full-length human MAT1 expressed in baculovirus infected Sf21 insect cells to IC50 for inhibition of N-terminal ….
A short description of data set [2]: Solubility of compound in SGF by HPLC analysis.
The target of data set [3] is T1, Cyclin-dependent kinase 2 (Homo sapiens, UniProt P24941). Kind of data set: Inhibition of CDK2 in CCNE1-amplified human COV318 cells assessed as reduction in retinoblastoma protein phosphorylation at S780 residue incubated overnight by HTRF microplate reader. It is filed as cell-based. For orientation: Time-resolved FRET reads energy transfer from a long-lived donor to a nearby acceptor.

Data set [4] is filed under the species Homo sapiens. As to the kind of experiment: Selectivity index, ratio of IC50 for inhibition of N-terminal GST-tagged full length human CDK1 (1 to 297 residues)/human Cyclin B1 (1 to 433 residues) expressed in baculovirus infected Sf21 cells to IC50 for inhibition of N-terminal GST-tagged full-length human CDK2(1 to 298 residues) /FLAG-tagged human Cyclin E1 (1 to 410 residues) expressed in baculovirus-infected Sf21 cells.

Data set [5] addresses Cyclin-dependent kinase 1/cyclin B1 (Homo sapiens, UniProt P06493). Kind of data set: Inhibition of N-terminal GST-tagged full length human CDK1 (1 to 297 residues)/human Cyclin B1 (1 to 433 residues) expressed in baculovirus infected Sf21 cells incubated for 60 mins in presence of ATP by HTRF assay.
Another data set addresses CDK9/cyclin T1 (Homo sapiens, UniProt P50750). Kind of data set: Inhibition of N-terminal GST-tagged full length human CDK9 (1 to 372 residues)/His-tagged human Cyclin T1 (1 to 726 residues) expressed in baculovirus infected Sf21 insect cells incubated for 60 mins by HTRF assay.
For the next data set, the target named is CDK6/cyclin D3 (Homo sapiens, UniProt Q00534). Kind of data set: Inhibition of N-terminal GST-tagged human CDK6 (1 to 326 residues)/N-terminal 6-His fused human Cyclin D3 (1 to 292 residues) expressed in Sf9 insect cells incubated for 60 mins by HTRF assay.
Data set [6] is filed under the species Homo sapiens. As to the kind of experiment: Selectivity index, ratio of IC50 for inhibition of N-terminal GST-tagged human CDK4 (4 to 303 residues)/N-terminal GST-tagged human Cyclin D1 (4 to 295 residues) expressed in Sf9 insect cells to IC50 for inhibition of N-terminal GST-tagged full-length human CDK2(1 to 298 residues) /FLAG-tagged human Cyclin E1 (1 to 410 residues) expressed in baculovirus-infected Sf21 cells.

Data set [7] can be described thus: Apparent permeability from apical to basolateral side in human Caco-2 cells at 50 uM incubated for 120 mins by LCMS analysis.
A further data set has as its target CDK7/Cyclin H/MNAT1 (Homo sapiens, UniProt P50613). As to the kind of experiment: Inhibition of C-terminal 6-His tagged recombinant full-length human CDK7/recombinant full-length human Cyclin H/N-terminal GST-tagged recombinant full-length human MAT1 expressed in baculovirus infected Sf21 insect cells incubated for 60 mins in presence of ATP by HTRF assay.
For data set [8], the species on record is Homo sapiens. As to the kind of experiment: Selectivity index, ratio of IC50 for inhibition of N-terminal GST-tagged full length human CDK9 (1 to 372 residues)/His-tagged human Cyclin T1 (1 to 726 residues) expressed in baculovirus infected Sf21 insect cells to IC50 for inhibition of N-terminal GST-tagged full-length human CDK2(1 to 298 residues) /FLAG-tagged human Cyclin E1 (1 to 410 residues) expressed in baculovirus-infected Sf21 cells.

The target of data set [9] is Cyclin-dependent kinase 2/cyclin E1 (Homo sapiens, UniProt P24941). As to the kind of experiment: Inhibition of N-terminal GST-tagged full-length human CDK2(1 to 298 residues) /FLAG-tagged human Cyclin E1 (1 to 410 residues) expressed in baculovirus-infected Sf21 cells incubated for 60 mins in presence of ATP by HTRF assay.
Data set [10] is filed under the species Homo sapiens. As to the kind of experiment: Selectivity index, ratio of IC50 for inhibition of N-terminal GST-tagged human CDK6 (1 to 326 residues)/N-terminal 6-His fused human Cyclin D3 (1 to 292 residues) expressed in Sf9 insect cells to IC50 for inhibition of N-terminal GST-tagged full-length human CDK2(1 to 298 residues) /FLAG-tagged human Cyclin E1 (1 to 410 residues) expressed in baculovirus-infected Sf21 cells.

A short description of data set [11]: Intrinsic clearance in human liver microsomes at 1 uM measured upto 30 mins by LC/MS analysis. Format: ADME, Microsome. Particulars: read-out: CLH (converted). For orientation: Microsomes from liver hold many membrane-bound enzymes, among them those of drug oxidation.
The target of data set [12] is Cyclin-dependent kinase 4/cyclin D1 (Homo sapiens, UniProt P11802). Kind of data set: Inhibition of N-terminal GST-tagged human CDK4 (4 to 303 residues)/N-terminal GST-tagged human Cyclin D1 (4 to 295 residues) expressed in Sf9 insect cells incubated for 60 mins in presence of ATP by HTRF assay.
The target of data set [13] is T1, Cyclin-dependent kinase 2. As to the kind of experiment: Inhibition of CDK2 in human whole blood spiked with CCNE1-amplified human COV318 cells assessed as reduction in retinoblastoma protein phosphorylation at S780 residue incubated overnight by HTRF microplate reader. Format: cell-based.
Data set [14] is described as follows: Protein binding in human plasma assessed as free fraction incubated for 2 hrs by LC-MS/MS analysis. Format: ADME, cell-free.

As usually defined, the solubility is the concentration that dissolves in the medium under given conditions. A higher solubility goes with a readily soluble substance. What is called pIC50 is the negative decadic logarithm of the IC50, by convention in mol/L. As usually defined, the Papp A→B is how fast a substance crosses the layer from the apical side. As a reminder, the fraction unbound is the share of the substance not bound to proteins or other matrix. `CNCc1ccc(-n2cc(-c3nc(NC4CCN(S(C)(=O)=O)CC4)ncc3C(F)(F)F)cn2)c(Cl)c1`: the Ratio IC50 in the data set listed under Homo sapiens [1] worked out at 62; in the data set filed under Homo sapiens [4], 81; in the data set filed under Homo sapiens [6], 21; in the data set listed under Homo sapiens [8], 5900; in the data set filed under Homo sapiens [10], 109. The same compound registered a solubility in [2] of 94 µg/mL (≈ 173 µM). Also, the pIC50 in data set [3] was 7.60; in [5], 7.37; against CDK9/cyclin T1 it was 5.50; at CDK6/cyclin D3, 7.24; on CDK7/Cyclin H/MNAT1, 7.48; in [9], 9.28. For the same compound, the pIC50 in data set [12] was 7.96; in data set [13] it was 6.58. Moreover, in [7], the Papp A→B at 2 h, 50 µM came to 3.3 ×10⁻⁶ cm/s. In addition, in data set [11], the CLint scaled at 1 µM was 11.7 mL/min/kg. In addition, in data set [14], the unbound share (fraction unbound) at 2 h came to 0.078.
